# “And” between values parts separate entries of the source, which are not always exact repeats. Equal entries are not always repeated. Where two headings read alike, the source gives them in different places.
# Key:
# HL60 = assay: In vitro antiproliferative MTT assay in HL60, 24 h endpoint; assay type: cell-based, human; settings: triplicate determination; for IC50: read-out: IC50 (μM) ± S.D. in HL60
# Method: In vitro proliferation assay. Approximately 3 000-5 000 (15 000 cells for HL-60) exponentially growing cells were seeded in each well of a 96-well plate with 50 μl of medium and were allowed to adhere overnight. Cells were then treated with each compound at concentrations ranging from 0.01-10 μM giving the final volume of 100 μl in each well. At the end of incubation period, 15 μl of MTT solution (5.0 mg/ml in PBS) was added and incubated for an additional 4 h. Medium and excessive MTT were aspirated and formazan formed was solubilized with 100 μl of DMSO. Absorbance, as a measurement of viable cell number was read at 570 nm with ThermoLabsystems OpsysMR microplate spectrometer. At least three independent experiments were performed and results are presented as an average.
# [1] = system: whole animal tumor models; settings: a number of whole animal tumor models; cited from earlier work
# [2] = system: transformed mouse mammary epithelial cells; settings: cells with increased mitochondrial transmembrane potential; cited from earlier work
# [3] = system: A6-derived subcutaneous tumors; settings: nude mice, intraperitoneal injection; cited from earlier work
# [4] = Fluorescence quantum yield; assay type: physicochemical; settings: for fluorescence quantum yield: in ethanol, unpublished data
# Method: Steady-state fluorescence spectroscopic studies were performed on a Cary Eclipse fluorometer. The slit width was 5 nm for both excitation and emission. The relative quantum yields of the samples were obtained by comparing the area under the corrected emission spectrum of the test sample with that of a standard. The quantum efficiencies of fluorescence were obtained from multiple measurements (N=3) with the following equation:
# Φx=Φst(Ix/Ist)(Ast/Ax)(ηx^2/ηst^2)
# Where Φst is the reported quantum yield of the standard, I is the area under the emission spectra, A is the absorption at the excitation wavelength and η is the refractive index of the solvent used, measured on a pocket refractometer from ATAGO. X subscript denotes test sample, and st denotes standard.
# HSC2 = assay: In vitro anti-proliferative MTT assay, 48 h, HSC2; assay type: cell-based, human; settings: HSC2, oral, 48 h post-treatment, read-out: IC50 (μM) ± S.D., HSC2
# Excerpt: (§1) In vitro proliferation assay.
# OKF6 = assay: In vitro anti-proliferative MTT assay, 48 h, OKF6 immortalized normal oral keratinocytes; assay type: cell-based; settings: immortalized normal human epithelial cells, read-out: IC50 (μM) ± S.D., OKF6
# Excerpt: as §1
# HK1 = assay: In vitro anti-proliferative MTT assay, 48 h, HK1; assay type: cell-based, human; settings: HK1, nasopharyngeal, 48 h post-treatment, read-out: IC50 (μM) ± S.D., HK1
# Excerpt: as §1
# HCT116 = assay: In vitro anti-proliferative MTT assay, 48 h, HCT116; assay type: cell-based, human; settings: HCT116, colon, 48 h post-treatment, read-out: IC50 (μM) ± S.D., HCT116
# Excerpt: as §1
# HSC2 cells [5] = settings: IC50 concentration (0.25 μM), 4 h to 48 h
# Method: Cell cycle analysis. HSC2 cells were treated and collected as above. Cells were then fixed in 70% ice-cold ethanol (v/v in PBS) overnight at 4° C. Following fixation, the cells were washed twice in cold PBS. The pellet was then resuspended in PBS solution containing 20 μg/ml RNase A and 1 μM SYTOX Green for 30 min. The cells were analysed on a FACSCalibur flow cytometer with 488 nm argon laser. The DNA-SYTOX Green fluorescence of 10 000 cells were collected with the FL1 detector with 530/30 band pass filter.
# MCF-7 = assay: In vitro anti-proliferative MTT assay, 48 h, MCF-7; assay type: cell-based, human; settings: MCF-7, breast, 48 h post-treatment, read-out: IC50 (μM) ± S.D., MCF-7
# Excerpt: as §1
# NP69 = assay: In vitro anti-proliferative MTT assay, 48 h, NP69 immortalized normal nasopharyngeal epithelial cells; assay type: cell-based; settings: immortalized normal human epithelial cells, read-out: IC50 (μM) ± S.D., NP69
# Excerpt: as §1
# HSC2 cells [6] = settings: 100 nM
# Method: Cellular localization. HSC2 cells grown on round glass coverslips in 12-well plate were co-incubated with 100 nM of compound 11 together with organelle-specific fluorescence probes. The endoplasmic reticulum was labeled with 100 nM of ER-Tracker Blue-White DPX, the lysosomes were stained with 500 nM of LysoTracker Blue DND-22, and the mitochrondria was tracked with 100 nM of Rh123 respectively for 15-30 min of incubation at room temperature. After incubation, cells were gently rinsed in PBS to remove free dyes, and the stained cells were observed using Olympus DSU spinning disk confocal microscope configured with a PlanApo x63 oil objective and iXon EM+(Andor Technology) digital camera. Fluorescent images of X-Y sections at 0.2 μm were collected sequentially using Olympus Cell^R software. Organelle-specific fluorescence probes were respectively excited at 365 nm to illuminate ER-tracker and LysoTracker, at 494 nm for Rh123 and at 575 nm for compound 11.
# HSC2 cells [7] = settings: 0.5 μM
# Method: AnnexinV-FITC apoptosis analysis. HSC2 cells grown in 60-mm dishes at 50% confluency were treated with 0.5 μM of compound 11. At various treatment intervals, floating cells in the medium were pooled together with the adherent cells after trypsinization and were washed twice with cold PBS. The cells were resuspended with 1× binding buffer at 1×10^6 cells/ml. A 100 μl of cell suspension was transferred to a 5 ml tube followed by […] of AnnexinV-FITC and […] of propidium iodide (200 μg/ml in PBS). The cells were gently mixed and incubated for 15 min at RT in the dark before analysed on a FACSCalibur flow cytometer with 488 nm argon laser. The fluorescence data of 10 000 cells were collected with the FL1 detector with 530/30 band pass filter to collect Annexin-FITC fluorescence, and the FL3 detector with a 630 nm long pass filter to collect propidium iodide fluorescence.
# [8] = system: non-tumorigenic epithelial cell types; settings: in vitro, similar concentrations; cited from earlier work
# carcinoma cell types = settings: in vitro; cited from earlier work
# carcinoma = settings: cited from earlier work
# cancer cells = settings: cited from earlier work
# [9] = Homo sapiens, HL-60, HL60, 24 h post-treatment
compound,measurement,setting,value
Cc1ccccc1-c1c2ccc(=[N+]3CCOCC3)cc-2oc2cc(N3CCOCC3)ccc12.[Cl-] [Compound 4],IC50 (μM) ± S.D. in HL60,"HL60; HL60, 24 h post-treatment",moderate to poor activity
same,IC50,"HL60; HL60, 24 h post-treatment",8.27 µM
Oc1cccc(O)c1-c1c2ccc(=[N+]3CCCCC3)cc-2oc2cc(N3CCCCC3)ccc12 [Compound 15],IC50 (μM) ± S.D. in HL60,"HL60; HL60, 24 h post-treatment",moderate to poor activity
same,IC50,HL60; [9],2.91 ± 1.86 µM
Cc1ccccc1-c1c2ccc(=[N+]3CCCC3)cc-2oc2cc(N3CCCC3)ccc12 [Compound 1],IC50,"HL60; HL60, 24 h post-treatment",0.72 ± 0.09 µM
Cc1c2ccc(=[N+]3CCCCC3)cc-2oc2cc(N3CCCCC3)ccc12.[Cl-] [Compound 7],IC50 (μM) ± S.D. in HL60,"HL60; HL60, 24 h post-treatment",moderate to poor activity
same,IC50,"HL60; HL60, 24 h post-treatment",3.86 ± 1.46 µM
3-ethyl-3′-methyl-thiatelluracarbocyanine iodide,activity in whole animal tumor models,[1],anti-carcinoma activity
COc1cccc(OC)c1-c1c2ccc(=[N+]3CCCCC3)cc-2oc2cc(N3CCCCC3)ccc12 [Compound 14],IC50,"HL60; HL60, 24 h post-treatment",0.25 ± 0.22 µM
C[n+]1ccc(/C=C/c2c[nH]c3ccccc23)cc1.[I-] [Compound F16],proliferation of transformed mouse mammary epithelial cells,[2],selectively inhibited proliferation
same,growth of A6-derived subcutaneous tumors,[3],retard the growth
COc1ccc(-c2c3ccc(=[N+]4CCCCC4)cc-3oc3cc(N4CCCCC4)ccc23)cc1 [Compound 12],IC50,"HL60; HL60, 24 h post-treatment",0.66 ± 0.17 µM
O=C(O)COc1cccc(OCC(=O)O)c1-c1c2ccc(=[N+]3CCCCC3)cc-2oc2cc(N3CCCCC3)ccc12 [Compound 16],IC50 (μM) ± S.D. in HL60,"HL60; HL60, 24 h post-treatment",moderate to poor activity
same,IC50,HL60; [9],> 100 µM
same,quantum yield,[4]; in phosphate buffer,0.13
Cc1cc(N)c2ccccc2[n+]1CCCCCCCCCC[n+]1c(C)cc(N)c2ccccc21 [dequalinium chloride],activity in whole animal tumor models,[1],anti-carcinoma activity
Ic1ccc(-c2c3ccc(=[N+]4CCCCC4)cc-3oc3cc(N4CCCCC4)ccc23)cc1.[Cl-] [Compound 11],IC50,HSC2,0.25 ± 0.12 µM
same,IC50,OKF6,0.41 ± 0.07 µM
same,IC50,"HL60; HL60, 24 h post-treatment",0.09 µM
same,IC50,HK1,0.42 ± 0.06 µM
same,IC50,HCT116,0.39 ± 0.11 µM
same,cell cycle profile,HSC2 cells [5],remained unchanged
same,IC50,MCF-7,0.39 ± 0.22 µM
same,IC50,NP69,0.51 ± 0.16 µM
same,presence of compound in the nucleus,HSC2 cells [6],remained free of compound 11
same,staining of the cytoplasmic or nuclear membrane,HSC2 cells [6],not detected
same,co-localisation with ER and lysosomes,HSC2 cells [6]; ER-Tracker and LysoTracker,only partial co-localisation
same,fluorescence quantum yield,[4],0.28 ± 0.01
same,cells staining positive for annexin V,HSC2 cells [7]; 0 h or 4 h time-points,less than 10%
same,cells staining positive for annexin V,HSC2 cells [7]; 8 h of compound incubation,16%
same,proportion of cells undergoing apoptosis,HSC2 cells [7]; within 24 h,58%
Cc1ccccc1-c1c2ccc(=[N+]3CCCCC3)cc-2oc2cc(N3CCCCC3)ccc12 [Compound 2],IC50,"HL60; HL60, 24 h post-treatment",0.76 ± 0.03 µM
Cc1ccccc1-c1c2ccc(=[N+]3CCOCC3)cc-2oc2cc(N3CCCCC3)ccc12.[Cl-] [Compound 3],IC50 (μM) ± S.D. in HL60,"HL60; HL60, 24 h post-treatment",lowest IC50 value among compounds 1-6
same,IC50,"HL60; HL60, 24 h post-treatment",0.35 ± 0.01 µM
[Cl-].c1csc(-c2c3ccc(=[N+]4CCCCC4)cc-3oc3cc(N4CCCCC4)ccc23)c1 [Compound 10],IC50,HSC2,0.12 ± 0.09 µM
same,IC50,OKF6,0.25 ± 0.1 µM
same,IC50,"HL60; HL60, 24 h post-treatment",0.1 µM
same,IC50,HK1,0.09 ± 0.01 µM
same,IC50,HCT116,0.15 ± 0.06 µM
same,IC50,MCF-7,0.27 ± 0.16 µM
same,IC50,NP69,0.33 ± 0.2 µM
same,fluorescence quantum yield,[4],0.10 ± 0.01
"COC(=O)c1ccccc1-c1c2ccc(=N)cc-2oc2cc(N)ccc12.Cl [Rh123, rhodamine 123, reference compound]",IC50,HSC2,4.48 ± 2.23 µM
same,IC50,OKF6,9.84 ± 3.46 µM
same,IC50,HK1,5.86 ± 0.15 µM
same,IC50,HCT116,7.92 ± 0.95 µM
same,non-tumorigenic epithelial cell types that remained unaffected,[8],6/6
same,carcinoma cell types in which cell death was markedly induced,carcinoma cell types,9/9
same,IC50,MCF-7,5.61 ± 0.61 µM
same,IC50,NP69,6.28 ± 0.21 µM
c1ccc(Cc2c3ccc(=[N+]4CCCCC4)cc-3oc3cc(N4CCCCC4)ccc23)cc1 [Compound 8],IC50,"HL60; HL60, 24 h post-treatment",0.82 ± 0.04 µM
CCn1c(=O)/c(=C2\Sc3ccccc3N2C)s/c1=C\c1cccc[n+]1CC.[Cl-] [MKT-077],accumulation in tumor cell mitochondria,carcinoma; clinical study,preferentially accumulated in tumor cell mitochondria
same,clinical efficacy,"carcinoma; phase II, approved dosage and drug regimen",lack of efficacy
same,growth of cancer cells in vitro and in vivo,cancer cells,significantly inhibit growth
Cc1ccccc1-c1c2ccc(=[N+]3CCN(C(=O)OC(C)(C)C)CC3)cc-2oc2cc(N3CCN(C(=O)OC(C)(C)C)CC3)ccc12 [Compound 5],IC50,"HL60; HL60, 24 h post-treatment",0.62 ± 0.07 µM
COc1ccccc1-c1c2ccc(=[N+]3CCCCC3)cc-2oc2cc(N3CCCCC3)ccc12 [Compound 13],IC50,"HL60; HL60, 24 h post-treatment",0.95 ± 0.01 µM
Cc1ccccc1-c1c2ccc(=[N+]3CCNCC3)cc-2oc2cc(N3CCNCC3)ccc12.[Cl-] [Compound 6],IC50 (μM) ± S.D. in HL60,"HL60; HL60, 24 h post-treatment",moderate to poor activity
same,IC50,"HL60; HL60, 24 h post-treatment",36.7 µM and 53.3 µM

# — US20110212955A1, “ROSAMINE DERIVATIVES AS AGENTS FOR THE TREATMENT OF CANCER” (CANCER RESEARCH INITIATIVES FOUNDATION, priority 2008, published 2011)
